Source: patent US11498899B2, “Nitrone herbicides” (FMC Corporation, priority 2016, dated 2022)

Assays:
[1] = system: barnyardgrass (Echinochloa crus-galli); test: Test A preemergence, visual injury rating 0-100 (0 no effect, 100 complete control); type: in vivo; conditions: for Barnyardgrass plant response rating (0 to 100 scale): 125 g ai/ha
Source text: (§1) Seeds of plant species selected from barnyardgrass (Echinochloa crus-galli), kochia (Kochia scoparia), ragweed (common ragweed, Ambrosia elatior), ryegrass, Italian (Italian ryegrass, Lolium multiflorum), foxtail, giant (giant foxtail, Setaria faberii), foxtail, green (green foxtail, Setaria viridis), and pigweed (Amaranthus retroflexus) were planted into a blend of loam soil and sand and treated preemergence with a directed soil spray using test chemicals formulated in a non-phytotoxic solvent mixture which included a surfactant.
(§2) At the same time, plants selected from these weed species and also wheat (Triticum aestivum), corn (Zea mays), blackgrass (Alopecurus myosuroides), and galium (catchweed bedstraw, Galium aparine) were planted in pots containing the same blend of loam soil and sand and treated with postemergence applications of test chemicals formulated in the same manner. Plants ranged in height from 2 to 10 cm and were in the one- to two-leaf stage for the postemergence treatment. Treated plants and untreated controls were maintained in a greenhouse for approximately 10 days, after which time all treated plants were compared to untreated controls and visually evaluated for injury. […] A dash (-) response means no test result.

[2] = system: wheat (Triticum aestivum); test: Test A postemergence, visual injury rating 0-100; type: in vivo; conditions: 0 to 100 scale
Source text: as §1, §2

[3] = system: ragweed (common ragweed, Ambrosia elatior); test: Test A postemergence, visual injury rating 0-100; type: in vivo; conditions: 0 to 100 scale
Source text: as §1, §2

[4] = system: galium (catchweed bedstraw, Galium aparine); test: Test A postemergence, visual injury rating 0-100; type: in vivo; conditions: 0 to 100 scale
Source text: as §1, §2

[5] = system: foxtail, giant (giant foxtail, Setaria faberii); test: Test A postemergence, visual injury rating 0-100; type: in vivo; conditions: 0 to 100 scale
Source text: as §1, §2

kochia (Kochia scoparia) [6] = test: Test A postemergence, visual injury rating 0-100; type: in vivo; conditions: 0 to 100 scale
Source text: as §1, §2

corn (Zea mays) = test: Test A postemergence, visual injury rating 0-100; type: in vivo; conditions: 0 to 100 scale
Source text: as §1, §2

[7] = system: blackgrass (Alopecurus myosuroides); test: Test A postemergence, visual injury rating 0-100; type: in vivo; conditions: 0 to 100 scale
Source text: as §1, §2

[8] = system: ryegrass, Italian (Italian ryegrass, Lolium multiflorum); test: Test A postemergence, visual injury rating 0-100; type: in vivo; conditions: 0 to 100 scale
Source text: as §1, §2

[9] = system: barnyardgrass (Echinochloa crus-galli); test: Test A postemergence, visual injury rating 0-100; type: in vivo; conditions: 0 to 100 scale
Source text: as §1, §2

[10] = system: pigweed (Amaranthus retroflexus); test: Test A postemergence, visual injury rating 0-100; type: in vivo; conditions: 0 to 100 scale
Source text: as §1, §2

rice (Oryza sativa) = test: Test B flooded paddy test, visual rating 0-100 (0 no effect, 100 complete control); conditions: Flood, 250 g ai/ha, applied to paddy water, rated after 13 to 15 days
[11] = system: barnyardgrass (Echinochloa crus-galli); test: Test B flooded paddy test, visual rating 0-100; conditions: Flood, 250 g ai/ha, applied to paddy water, rated after 13 to 15 days
[12] = system: ragweed (common ragweed, Ambrosia elatior); test: Test A preemergence, visual injury rating 0-100; type: in vivo; conditions: for Ragweed plant response rating (0 to 100 scale): 125 g ai/ha
Source text: as §1, §2

[13] = system: foxtail, giant (giant foxtail, Setaria faberii); test: Test A preemergence, visual injury rating 0-100; type: in vivo; conditions: for Foxtail, Giant plant response rating (0 to 100 scale): 125 g ai/ha
Source text: as §1, §2

kochia (Kochia scoparia) [14] = test: Test A preemergence, visual injury rating 0-100; type: in vivo; conditions: for Kochia plant response rating (0 to 100 scale): 125 g ai/ha
Source text: as §1, §2

[15] = system: ryegrass, Italian (Italian ryegrass, Lolium multiflorum); test: Test A preemergence, visual injury rating 0-100; type: in vivo; conditions: for Ryegrass, Italian plant response rating (0 to 100 scale): 125 g ai/ha
Source text: as §1, §2

[16] = system: pigweed (Amaranthus retroflexus); test: Test A preemergence, visual injury rating 0-100; type: in vivo; conditions: for Pigweed plant response rating (0 to 100 scale): 125 g ai/ha
Source text: as §1, §2

[17] = system: ducksalad (Heteranthera limosa); test: Test B flooded paddy test, visual rating 0-100; conditions: Flood, 250 g ai/ha, applied to paddy water, rated after 13 to 15 days
[18] = 31 g ai/ha, 0 to 100 scale (0 no effect, 100 complete control), approx. 10 days

CC1=[N+]([O-])C(C(=O)Nc2cccc(F)c2F)C(c2ccc(F)cc2)C1 (racemic) [Compound 9]
85: Barnyardgrass plant response rating (0 to 100 scale) [11]
70: Foxtail, Giant plant response rating [13, 18]
100: Ducksalad plant response rating (0 to 100 scale) [17]
30: Barnyardgrass plant response rating [1, 18] | Galium plant response rating ([4]; 125 g ai/ha) | Pigweed plant response rating (0 to 100 scale) [16]
40: Barnyardgrass plant response rating ([9]; 125 g ai/ha)
20: Foxtail, Giant plant response rating ([5]; 31 g ai/ha) | Pigweed plant response rating ([10]; 125 g ai/ha)
90: Barnyardgrass plant response rating (0 to 100 scale) [1] | Ragweed plant response rating (0 to 100 scale) [12] | Foxtail, Giant plant response rating (0 to 100 scale) [13]
0: Wheat plant response rating ([2]; 31 g ai/ha) | Wheat plant response rating ([2]; 125 g ai/ha) | Ragweed plant response rating ([3]; 31 g ai/ha) | Ragweed plant response rating ([3]; 125 g ai/ha) | Galium plant response rating ([4]; 31 g ai/ha) | Kochia plant response rating (kochia (Kochia scoparia) [6]; 31 g ai/ha) | Kochia plant response rating (kochia (Kochia scoparia) [6]; 125 g ai/ha) | Corn plant response rating (corn (Zea mays); 31 g ai/ha) | Corn plant response rating (corn (Zea mays); 125 g ai/ha) | Blackgrass plant response rating ([7]; 31 g ai/ha) | Blackgrass plant response rating ([7]; 125 g ai/ha) | Ryegrass, Italian plant response rating ([8]; 31 g ai/ha) | Ryegrass, Italian plant response rating ([8]; 125 g ai/ha) | Pigweed plant response rating ([10]; 31 g ai/ha) | Rice plant response rating (0 to 100 scale) (rice (Oryza sativa)) | Ragweed plant response rating [12, 18] | Kochia plant response rating (kochia (Kochia scoparia) [14]; [18]) | Kochia plant response rating (0 to 100 scale) (kochia (Kochia scoparia) [14]) | Ryegrass, Italian plant response rating [15, 18] | Ryegrass, Italian plant response rating (0 to 100 scale) [15] | Pigweed plant response rating [16, 18]
10: Barnyardgrass plant response rating ([9]; 31 g ai/ha)
50: Foxtail, Giant plant response rating ([5]; 125 g ai/ha)

CC1=[N+]([O-])C(C(=O)Nc2cccc(F)c2F)C(c2ccc(F)c(F)c2)C1 (racemic) [Compound 10]
90: Barnyardgrass plant response rating (0 to 100 scale) [1] | Barnyardgrass plant response rating ([1]; 500 g ai/ha, 0 to 100 scale) | Foxtail, Giant plant response rating ([5]; 500 g ai/ha) | Barnyardgrass plant response rating ([9]; 500 g ai/ha) | Ragweed plant response rating ([12]; 500 g ai/ha, 0 to 100 scale) | Foxtail, Giant plant response rating ([13]; 500 g ai/ha, 0 to 100 scale)
20: Ragweed plant response rating ([3]; 500 g ai/ha) | Kochia plant response rating (kochia (Kochia scoparia) [6]; 500 g ai/ha) | Blackgrass plant response rating ([7]; 125 g ai/ha) | Pigweed plant response rating ([10]; 500 g ai/ha)
40: Barnyardgrass plant response rating ([9]; 125 g ai/ha)
100: Ducksalad plant response rating (0 to 100 scale) [17]
85: Barnyardgrass plant response rating (0 to 100 scale) [11]
30: Blackgrass plant response rating ([7]; 500 g ai/ha)
50: Galium plant response rating ([4]; 125 g ai/ha) | Corn plant response rating (corn (Zea mays); 500 g ai/ha) | Pigweed plant response rating (0 to 100 scale) [16]
80: Foxtail, Giant plant response rating (0 to 100 scale) [13]
70: Wheat plant response rating ([2]; 500 g ai/ha)
60: Galium plant response rating ([4]; 500 g ai/ha) | Foxtail, Giant plant response rating ([5]; 125 g ai/ha) | Kochia plant response rating (kochia (Kochia scoparia) [14]; 500 g ai/ha, 0 to 100 scale) | Ryegrass, Italian plant response rating ([15]; 500 g ai/ha, 0 to 100 scale) | Pigweed plant response rating ([16]; 500 g ai/ha, 0 to 100 scale)
0: Wheat plant response rating ([2]; 125 g ai/ha) | Ragweed plant response rating ([3]; 125 g ai/ha) | Kochia plant response rating (kochia (Kochia scoparia) [6]; 125 g ai/ha) | Corn plant response rating (corn (Zea mays); 125 g ai/ha) | Ryegrass, Italian plant response rating ([8]; 125 g ai/ha) | Ryegrass, Italian plant response rating ([8]; 500 g ai/ha) | Pigweed plant response rating ([10]; 125 g ai/ha) | Rice plant response rating (0 to 100 scale) (rice (Oryza sativa)) | Ragweed plant response rating (0 to 100 scale) [12] | Kochia plant response rating (0 to 100 scale) (kochia (Kochia scoparia) [14]) | Ryegrass, Italian plant response rating (0 to 100 scale) [15]

CC1=[N+]([O-])C(C(=O)Nc2cccc(F)c2F)C(c2ccccc2C)C1 (racemic) [Compound 11]
30: Foxtail, Giant plant response rating ([5]; 125 g ai/ha) | Ragweed plant response rating ([12]; 500 g ai/ha, 0 to 100 scale)
20: Wheat plant response rating ([2]; 500 g ai/ha) | Galium plant response rating ([4]; 500 g ai/ha)
80: Barnyardgrass plant response rating (0 to 100 scale) [1]
0: Wheat plant response rating ([2]; 125 g ai/ha) | Ragweed plant response rating ([3]; 125 g ai/ha) | Ragweed plant response rating ([3]; 500 g ai/ha) | Galium plant response rating ([4]; 125 g ai/ha) | Kochia plant response rating (kochia (Kochia scoparia) [6]; 125 g ai/ha) | Kochia plant response rating (kochia (Kochia scoparia) [6]; 500 g ai/ha) | Corn plant response rating (corn (Zea mays); 125 g ai/ha) | Corn plant response rating (corn (Zea mays); 500 g ai/ha) | Blackgrass plant response rating ([7]; 125 g ai/ha) | Blackgrass plant response rating ([7]; 500 g ai/ha) | Ryegrass, Italian plant response rating ([8]; 125 g ai/ha) | Ryegrass, Italian plant response rating ([8]; 500 g ai/ha) | Pigweed plant response rating ([10]; 125 g ai/ha) | Pigweed plant response rating ([10]; 500 g ai/ha) | Kochia plant response rating (0 to 100 scale) (kochia (Kochia scoparia) [14]) | Kochia plant response rating (kochia (Kochia scoparia) [14]; 500 g ai/ha, 0 to 100 scale) | Ryegrass, Italian plant response rating (0 to 100 scale) [15] | Ryegrass, Italian plant response rating ([15]; 500 g ai/ha, 0 to 100 scale) | Pigweed plant response rating (0 to 100 scale) [16] | Pigweed plant response rating ([16]; 500 g ai/ha, 0 to 100 scale)
40: Barnyardgrass plant response rating ([9]; 125 g ai/ha) | Ragweed plant response rating (0 to 100 scale) [12]
90: Foxtail, Giant plant response rating ([5]; 500 g ai/ha) | Barnyardgrass plant response rating ([9]; 500 g ai/ha) | Barnyardgrass plant response rating (0 to 100 scale) [11] | Foxtail, Giant plant response rating (0 to 100 scale) [13]
15: Rice plant response rating (0 to 100 scale) (rice (Oryza sativa))
100: Barnyardgrass plant response rating ([1]; 500 g ai/ha, 0 to 100 scale) | Foxtail, Giant plant response rating ([13]; 500 g ai/ha, 0 to 100 scale) | Ducksalad plant response rating (0 to 100 scale) [17]
